How the values were obtained:
Assay in all cases: EC50 assay: Ba/F3 stable cell proliferation (CCK-8, 72 h)
Format in all cases: cell-based
[1] = molecular target: T1, Ba/F3 stable cells (Homo sapiens, UniProt P00533, DUP767-769, cells depend on it); conditions: Ba/F3-EGFR V769-D770insASV cells
T1 construct: EC50 Ba/F3-EGFR V769-D770insASV; other: Ba/F3-EGFR V769-D770insASV cells, 72 h, CCK-8
Experimental: (§1) 4,000 Ba/F3 stable cells/90 μL/well were plated onto 96-well cell culture plate (Grenier, Cat.No. 655180) and incubated at 37° C. with a humidified atmosphere of 5% CO2 for 2 h. Then the cells were treated with 10 μL compounds at serial titration. The final DMSO concentration is 0.1%. The cells treated with 0.1% DMSO (Vetec, Cat.No.V900090) as a positive control (Max), and medium with 0.1% DMSO was as a negative control (Min). Incubated the cells at 37° C. for 72 h. 10 μL the cell proliferation reagent CCK-8 (Dojindo, Cat.No. CK04 1000T) was added into each well and incubated the plate at 37° C. for 4 hours, the GD value was measured by SPECTRAmax plus (Molecular Devices) at 450 nm. Data processing with Graphpad 7.0.

[2] = molecular target: T2, Ba/F3 stable cells (Homo sapiens, UniProt P00533, DUP768-770, cells depend on it); conditions: Ba/F3-EGFR D770-N771insSVD cells
T2 construct: EC50 Ba/F3-EGFR D770-N771insSVD; other: Ba/F3-EGFR D770-N771insSVD cells, 72 h, CCK-8
Experimental: as §1

[3] = molecular target: T3, Ba/F3 stable cells (Homo sapiens, UniProt P00533, DUP771-773, cells depend on it); conditions: Ba/F3-EGFR H773-V774insNPH cells
T3 construct: EC50 Ba/F3-EGFR H773-V774insNPH; other: Ba/F3-EGFR H773-V774insNPH cells, 72 h, CCK-8
Experimental: as §1

[4] = molecular target: T4, Ba/F3 stable cells (Homo sapiens, UniProt P00533, INS763FQEA, cells depend on it); conditions: Ba/F3-EGFR A763-Y764insFQEA cells
T4 construct: EC50 Ba/F3-EGFR A763-Y764insFQEA; other: Ba/F3-EGFR A763-Y764insFQEA cells, 72 h, CCK-8
Experimental: as §1

[5] = molecular target: T5, Ba/F3 stable cells (Homo sapiens, UniProt P00533, T790M/L858R, cells depend on it); conditions: Ba/F3-EGFR L858R-T790M cells
T5 construct: EC50 Ba/F3-EGFR L858R-T790M; other: Ba/F3-EGFR L858R-T790M cells, 72 h, CCK-8
Experimental: as §1

[6] = molecular target: T6, Ba/F3 stable cells (Homo sapiens, UniProt P04626, DUP772-775, cells depend on it); conditions: Ba/F3-HER2 A775-G776insYVMA cells
T6 construct: EC50 Ba/F3-HER2 A775-G776insYVMA; other: Ba/F3-HER2 A775-G776insYVMA cells, 72 h, CCK-8
Experimental: as §1

T2 sequence (P00533 with tags, fused parts or gaps DUP768-770): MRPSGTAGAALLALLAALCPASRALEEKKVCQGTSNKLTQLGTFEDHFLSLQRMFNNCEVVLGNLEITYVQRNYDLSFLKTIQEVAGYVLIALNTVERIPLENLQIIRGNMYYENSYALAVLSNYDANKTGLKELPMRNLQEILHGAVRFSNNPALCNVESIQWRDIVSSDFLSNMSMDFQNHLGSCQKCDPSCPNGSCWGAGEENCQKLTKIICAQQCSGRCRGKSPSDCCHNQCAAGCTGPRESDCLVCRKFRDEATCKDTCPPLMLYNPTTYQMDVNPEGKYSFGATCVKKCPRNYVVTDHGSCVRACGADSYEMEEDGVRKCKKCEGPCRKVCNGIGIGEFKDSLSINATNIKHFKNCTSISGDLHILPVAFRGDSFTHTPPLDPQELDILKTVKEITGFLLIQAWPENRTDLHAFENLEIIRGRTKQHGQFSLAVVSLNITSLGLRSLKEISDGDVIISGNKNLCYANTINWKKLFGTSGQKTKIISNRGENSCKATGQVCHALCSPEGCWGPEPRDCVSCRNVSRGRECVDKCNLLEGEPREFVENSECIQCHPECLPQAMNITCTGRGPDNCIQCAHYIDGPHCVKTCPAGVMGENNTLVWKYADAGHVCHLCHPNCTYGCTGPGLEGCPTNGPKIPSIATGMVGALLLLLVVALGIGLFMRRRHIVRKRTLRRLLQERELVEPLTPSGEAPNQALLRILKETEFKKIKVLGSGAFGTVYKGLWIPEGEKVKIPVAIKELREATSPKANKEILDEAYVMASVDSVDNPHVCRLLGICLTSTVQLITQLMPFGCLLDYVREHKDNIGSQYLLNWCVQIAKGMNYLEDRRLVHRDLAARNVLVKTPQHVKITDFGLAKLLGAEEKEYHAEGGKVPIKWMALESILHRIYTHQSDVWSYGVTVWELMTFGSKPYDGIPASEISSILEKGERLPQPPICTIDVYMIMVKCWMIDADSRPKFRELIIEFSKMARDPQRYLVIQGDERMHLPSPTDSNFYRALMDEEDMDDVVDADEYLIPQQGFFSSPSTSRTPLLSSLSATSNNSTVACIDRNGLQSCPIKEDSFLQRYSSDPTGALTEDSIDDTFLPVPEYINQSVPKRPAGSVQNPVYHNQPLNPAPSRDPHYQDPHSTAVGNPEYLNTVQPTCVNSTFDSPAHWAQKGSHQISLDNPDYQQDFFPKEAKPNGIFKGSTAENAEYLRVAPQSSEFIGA
T3 sequence (P00533 with tags, fused parts or gaps DUP771-773): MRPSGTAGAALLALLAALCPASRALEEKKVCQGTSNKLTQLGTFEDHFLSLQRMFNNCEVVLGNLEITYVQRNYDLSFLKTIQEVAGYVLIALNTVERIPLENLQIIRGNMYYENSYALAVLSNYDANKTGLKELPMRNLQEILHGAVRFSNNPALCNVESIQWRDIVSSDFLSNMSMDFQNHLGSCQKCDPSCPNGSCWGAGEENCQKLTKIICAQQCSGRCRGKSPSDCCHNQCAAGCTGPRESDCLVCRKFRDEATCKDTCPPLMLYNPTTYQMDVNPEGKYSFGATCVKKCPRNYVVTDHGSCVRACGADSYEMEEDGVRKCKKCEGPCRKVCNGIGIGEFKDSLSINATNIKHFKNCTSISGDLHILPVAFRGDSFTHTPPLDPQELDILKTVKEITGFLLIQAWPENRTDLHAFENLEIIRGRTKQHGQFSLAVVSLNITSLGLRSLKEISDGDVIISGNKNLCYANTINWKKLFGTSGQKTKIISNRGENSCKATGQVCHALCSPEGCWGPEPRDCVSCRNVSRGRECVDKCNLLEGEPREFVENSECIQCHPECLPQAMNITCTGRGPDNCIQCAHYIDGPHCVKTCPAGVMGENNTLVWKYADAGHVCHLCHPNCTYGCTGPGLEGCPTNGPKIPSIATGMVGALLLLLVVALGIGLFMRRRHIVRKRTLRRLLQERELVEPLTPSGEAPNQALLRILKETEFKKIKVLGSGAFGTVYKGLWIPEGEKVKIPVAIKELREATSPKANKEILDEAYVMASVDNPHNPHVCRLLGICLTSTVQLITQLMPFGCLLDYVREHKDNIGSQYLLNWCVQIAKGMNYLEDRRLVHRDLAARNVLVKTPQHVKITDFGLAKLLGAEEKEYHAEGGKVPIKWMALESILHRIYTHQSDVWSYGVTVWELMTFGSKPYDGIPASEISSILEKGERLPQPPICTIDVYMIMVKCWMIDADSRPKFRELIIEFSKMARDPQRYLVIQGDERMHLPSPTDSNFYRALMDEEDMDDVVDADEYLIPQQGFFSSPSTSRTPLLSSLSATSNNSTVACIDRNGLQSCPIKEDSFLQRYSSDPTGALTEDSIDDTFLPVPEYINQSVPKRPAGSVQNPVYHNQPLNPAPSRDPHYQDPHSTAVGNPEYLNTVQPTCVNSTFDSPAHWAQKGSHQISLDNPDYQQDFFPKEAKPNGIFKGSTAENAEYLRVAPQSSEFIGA
T5 sequence (P00533 whole entry T790M/L858R): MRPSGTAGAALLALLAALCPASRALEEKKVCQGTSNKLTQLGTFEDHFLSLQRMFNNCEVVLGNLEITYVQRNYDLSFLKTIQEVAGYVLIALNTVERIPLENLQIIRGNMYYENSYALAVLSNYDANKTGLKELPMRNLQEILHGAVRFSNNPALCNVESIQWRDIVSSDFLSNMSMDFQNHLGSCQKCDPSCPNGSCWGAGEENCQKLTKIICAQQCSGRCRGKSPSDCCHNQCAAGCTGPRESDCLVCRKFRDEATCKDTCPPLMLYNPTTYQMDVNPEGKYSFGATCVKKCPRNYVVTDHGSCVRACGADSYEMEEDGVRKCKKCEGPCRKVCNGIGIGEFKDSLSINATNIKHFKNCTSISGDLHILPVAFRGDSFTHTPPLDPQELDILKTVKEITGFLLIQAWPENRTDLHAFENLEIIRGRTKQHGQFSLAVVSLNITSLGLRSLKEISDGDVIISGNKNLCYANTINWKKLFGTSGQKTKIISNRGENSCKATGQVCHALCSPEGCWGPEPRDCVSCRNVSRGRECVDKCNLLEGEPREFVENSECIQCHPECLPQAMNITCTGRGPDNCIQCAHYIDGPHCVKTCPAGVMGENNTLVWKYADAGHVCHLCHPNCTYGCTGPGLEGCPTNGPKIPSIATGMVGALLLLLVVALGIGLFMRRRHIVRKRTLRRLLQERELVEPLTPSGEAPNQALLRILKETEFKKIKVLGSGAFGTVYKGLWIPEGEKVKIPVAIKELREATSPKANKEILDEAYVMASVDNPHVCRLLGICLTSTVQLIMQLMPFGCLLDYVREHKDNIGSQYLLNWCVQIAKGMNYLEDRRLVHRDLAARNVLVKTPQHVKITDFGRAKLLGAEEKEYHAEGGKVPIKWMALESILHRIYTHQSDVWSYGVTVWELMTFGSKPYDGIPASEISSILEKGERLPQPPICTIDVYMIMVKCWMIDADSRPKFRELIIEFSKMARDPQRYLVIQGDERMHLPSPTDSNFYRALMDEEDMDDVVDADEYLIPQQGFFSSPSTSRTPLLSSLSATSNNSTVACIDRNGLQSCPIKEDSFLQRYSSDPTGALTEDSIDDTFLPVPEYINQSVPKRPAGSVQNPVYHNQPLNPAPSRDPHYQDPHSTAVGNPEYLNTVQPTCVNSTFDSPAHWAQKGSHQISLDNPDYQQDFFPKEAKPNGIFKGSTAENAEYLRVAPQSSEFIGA
T6 sequence (P04626 with tags, fused parts or gaps DUP772-775): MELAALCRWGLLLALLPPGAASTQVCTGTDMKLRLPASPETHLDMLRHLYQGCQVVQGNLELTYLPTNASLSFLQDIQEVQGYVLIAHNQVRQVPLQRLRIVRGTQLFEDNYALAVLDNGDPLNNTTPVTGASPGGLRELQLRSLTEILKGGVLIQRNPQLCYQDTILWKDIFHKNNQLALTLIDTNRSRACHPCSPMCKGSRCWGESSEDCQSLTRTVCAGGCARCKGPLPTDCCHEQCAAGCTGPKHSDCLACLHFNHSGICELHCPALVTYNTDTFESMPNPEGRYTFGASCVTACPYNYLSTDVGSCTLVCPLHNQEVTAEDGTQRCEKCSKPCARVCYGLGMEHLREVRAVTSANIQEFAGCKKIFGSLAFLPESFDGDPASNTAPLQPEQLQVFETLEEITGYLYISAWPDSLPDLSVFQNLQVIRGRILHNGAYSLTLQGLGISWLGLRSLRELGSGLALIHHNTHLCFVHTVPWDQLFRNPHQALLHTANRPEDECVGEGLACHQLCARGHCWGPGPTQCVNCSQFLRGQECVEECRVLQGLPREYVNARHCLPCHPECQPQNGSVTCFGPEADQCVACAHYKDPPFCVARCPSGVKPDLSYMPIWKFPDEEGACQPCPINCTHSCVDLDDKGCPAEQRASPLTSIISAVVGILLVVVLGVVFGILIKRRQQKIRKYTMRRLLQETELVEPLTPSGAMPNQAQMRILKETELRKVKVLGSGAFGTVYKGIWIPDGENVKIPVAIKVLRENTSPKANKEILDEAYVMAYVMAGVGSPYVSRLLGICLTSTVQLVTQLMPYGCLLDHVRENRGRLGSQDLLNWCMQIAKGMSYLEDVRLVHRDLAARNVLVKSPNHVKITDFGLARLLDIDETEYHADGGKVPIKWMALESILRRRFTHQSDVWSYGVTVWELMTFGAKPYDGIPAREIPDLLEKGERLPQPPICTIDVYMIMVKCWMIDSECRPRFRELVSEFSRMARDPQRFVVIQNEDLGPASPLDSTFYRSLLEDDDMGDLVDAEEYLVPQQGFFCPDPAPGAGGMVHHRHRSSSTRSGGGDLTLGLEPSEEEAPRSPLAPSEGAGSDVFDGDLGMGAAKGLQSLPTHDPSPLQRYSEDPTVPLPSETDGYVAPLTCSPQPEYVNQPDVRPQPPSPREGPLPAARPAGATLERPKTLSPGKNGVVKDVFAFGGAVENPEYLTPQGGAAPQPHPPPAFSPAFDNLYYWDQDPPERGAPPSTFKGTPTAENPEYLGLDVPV

Compound | EC50 [1] [nM] | EC50 [2] [nM] | EC50 [3] [nM] | EC50 [4] [nM] | EC50 [5] [nM] | EC50 [6] [nM]
C=CC(=O)N1CC(c2cc3c(Nc4ccc(Cl)c(Cl)c4F)ncnc3cc2OCC)C1 [Compound 18, 1-(3-(4-((3,4-dichloro-2-fluorophenyl)amino)-7-ethoxyquinazolin-6-yl)azetidin-1-yl)prop-2-en-1-one] | ≤ 200 | ≤ 200 | ≤ 200 | ≤ 200 | ≤ 200 | ≤ 200
C=CC(=O)N1CC(c2cc3c(Nc4ccc(Cl)c(Cl)c4F)ncnc3cc2OCCO)C1 [Compound 19, 1-(3-(4-((3,4-dichloro-2-fluorophenyl)amino)-7-(2-hydroxyethoxy)quinazolin-6-yl)azetidin-1-yl)prop-2-en-1-one] | ≤ 200 | ≤ 200 | ≤ 200 | ≤ 200 | ≤ 200 | ≤ 200
C=CC(=O)N1CC(c2cc3c(Nc4ccc(Cl)c(Cl)c4F)ncnc3cc2OCCN2CCN(C)CC2)C1 [Compound 21, 1-(3-(4-((3,4-dichloro-2-fluorophenyl)amino)-7-(2-(4-methylpiperazin-1-yl)ethoxy)quinazolin-6-yl)azetidin-1-yl)prop-2-en-1-one] | ≤ 200 | ≤ 200 | ≤ 200 | ≤ 200 | ≤ 200 | ≤ 200
C=CC(=O)N1CC(c2cc3c(Nc4ccc(Cl)c(Cl)c4F)ncnc3cc2O[C@H]2CCOC2)C1 [Compound 22, (S)-1-(3-(4-((3,4-dichloro-2-fluorophenyl)amino)-7-((tetrahydrofuran-3-yl)oxy)quinazolin-6-yl)azetidin-1-yl)prop-2-en-1-one] | > 1000 | > 1000 | > 1000 | 200 to 1000 | > 1000 | > 1000
C=CC(=O)N1CC(c2cc3c(Nc4ccc(Cl)c(Cl)c4F)ncnc3cc2OC(F)F)C1 [Compound 23, 1-(3-(4-((3,4-dichloro-2-fluorophenyl)amino)-7-(difluoromethoxy)quinazolin-6-yl)azetidin-1-yl)prop-2-en-1-one] | ≤ 200 | ≤ 200 | ≤ 200 | ≤ 200 | ≤ 200 | 200 to 1000
C=CC(=O)N1CC(c2cc3c(Nc4ccc(Cl)c(Cl)c4F)ncnc3cc2OC2COC2)C1 [Compound 25, 1-(3-(4-((3,4-dichloro-2-fluorophenyl)amino)-7-(oxetan-3-yloxy)quinazolin-6-yl)azetidin-1-yl)prop-2-en-1-one] | ≤ 200 | ≤ 200 | ≤ 200 | ≤ 200 | ≤ 200 | ≤ 200
C=CC(=O)N1CC(c2cc3c(Nc4ccc(Cl)c(Cl)c4F)ncnc3cc2OCCN(C)C)C1 [Compound 26, 1-(3-(4-((3,4-dichloro-2-fluorophenyl)amino)-7-(2-(dimethylamino)ethoxy)quinazolin-6-yl)azetidin-1-yl)prop-2-en-1-one] | ≤ 200 | 200 to 1000 | 200 to 1000 | ≤ 200 | 200 to 1000 | 200 to 1000
C=CC(=O)N1CC(c2cc3c(Nc4ccc(Cl)c(Cl)c4F)ncnc3cc2OC2CCOCC2)C1 [Compound 27, 1-(3-(4-((3,4-dichloro-2-fluorophenyl)amino)-7-((tetrahydro-2H-pyran-4-yl)oxy)quinazolin-6-yl)azetidin-1-yl)prop-2-en-1-one] | ≤ 200 | 200 to 1000 | ≤ 200 | ≤ 200 | 200 to 1000 | > 1000
C=CC(=O)N1CC(c2cc3c(Nc4ccc(Cl)c(Cl)c4F)ncnc3cc2OCCN2CCOCC2)C1 [Compound 28, 1-(3-(4-((3,4-dichloro-2-fluorophenyl)amino)-7-(2-morpholinoethoxy)quinazolin-6-yl)azetidin-1-yl)prop-2-en-1-one] | ≤ 200 | 200 to 1000 | ≤ 200 | ≤ 200 | 200 to 1000 | 200 to 1000
C=CC(=O)N1CC(c2cc3c(Nc4ccc(Cl)c(Cl)c4F)ncnc3cc2O[C@@H]2CCOC2)C1 [Compound 29, (R)-1-(3-(4-((3,4-dichloro-2-fluorophenyl)amino)-7-((tetrahydrofuran-3-yl)oxy)quinazolin-6-yl)azetidin-1-yl)prop-2-en-1-one] | ≤ 200 | 200 to 1000 | ≤ 200 | ≤ 200 | ≤ 200 | 200 to 1000
C=CC(=O)N1CC(c2cc3c(Nc4ccc(Cl)c(Cl)c4F)ncnc3cc2OCCCN2CCOCC2)C1 [Compound 30, 1-(3-(4-((3,4-dichloro-2-fluorophenyl)amino)-7-(3-morpholinopropoxy)quinazolin-6-yl)azetidin-1-yl)prop-2-en-1-one] | ≤ 200 | ≤ 200 | ≤ 200 | ≤ 200 | ≤ 200 | ≤ 200
C=CC(=O)N1CC(c2cc3c(Nc4ccc(Cl)c(Cl)c4F)ncnc3cc2OCCCN2CCN(C)CC2)C1 [Compound 31, 1-(3-(4-((3,4-dichloro-2-fluorophenyl)amino)-7-(3-(4-methylpiperazin-1-yl)propoxy)quinazolin-6-yl)azetidin-1-yl)prop-2-en-1-one] | ≤ 200 | ≤ 200 | ≤ 200 | ≤ 200 | ≤ 200 | 200 to 1000
[2H]C([2H])([2H])Oc1cc2ncnc(Nc3ccc(Cl)c(Cl)c3F)c2cc1C1CN(C(=O)C=C)C1 [Compound 32, 1-(3-(4-((3,4-dichloro-2-fluorophenyl)amino)-7-(methoxy-d3)quinazolin-6-yl)azetidin-1-yl)prop-2-en-1-one] | ≤ 200 | ≤ 200 | ≤ 200 | ≤ 200 | ≤ 200 | ≤ 200
C=CC(=O)N1CC(c2cc3c(Nc4ccc(F)c(Cl)c4F)ncnc3cc2O[C@H]2CCOC2)C1 [Compound 33, (S)-1-(3-(4-((3-chloro-2,4-difluorophenyl)amino)-7-((tetrahydrofuran-3-yl)oxy)quinazolin-6-yl)azetidin-1-yl)prop-2-en-1-one] | ≤ 200 | ≤ 200 | ≤ 200 | ≤ 200 | ≤ 200 | ≤ 200
C=CC(=O)NCC1COc2cc3ncnc(Nc4ccc(Cl)c(Cl)c4F)c3cc21 (stereo not drawn) [Compound 34, N-((4-((3,4-dichloro-2-fluorophenyl)amino)-6,7-dihydrofuro[3,2-g]quinazolin-6-yl)methyl)acrylamide] | 200 to 1000 | 200 to 1000 | ≤ 200 | ≤ 200 | > 1000 | ≤ 200
[2H]C([2H])([2H])n1cn/c(=N\c2ccc(Cl)c(Cl)c2F)c2cc3c(cc21)OCC3CNC(=O)C=C (stereo not drawn) [Compound 35, (Z)—N-((4-((3,4-dichloro-2-fluorophenyl)imino)-1-trideuteriomethyl-1,4,6,7-tetrahydrofuro[3,2-g]quinazolin-6-yl)methyl)acrylamide] | > 1000 | > 1000 | > 1000 | > 1000 | > 1000 | > 1000
C=C(F)C(=O)N1CC(c2cc3c(Nc4ccc(Cl)c(Cl)c4F)ncnc3cc2O[C@H]2CCOC2)C1 [Compound 37, (S)-1-(3-(4-((3,4-dichloro-2-fluorophenyl)amino)-7-((tetrahydrofuran-3-yl)oxy)quinazolin-6-yl)azetidin-1-yl)-2-fluoroprop-2-en-1-one] | ≤ 200 | 200 to 1000 | 200 to 1000 | ≤ 200 | 200 to 1000 | 200 to 1000
C=C(F)C(=O)N1CC(c2cc3c(Nc4ccc(Cl)c(Cl)c4F)ncnc3cc2OC)C1 [Compound 38, 1-(3-(4-((3,4-dichloro-2-fluorophenyl)amino)-7-methoxyquinazolin-6-yl)azetidin-1-yl)-2-fluoroprop-2-en-1-one] | 200 to 1000 | > 1000 | 200 to 1000 | ≤ 200 | > 1000 | > 1000
